Reference: EP4389210A1, “HETEROARYL COMPOUNDS FOR THE CONTROL OF INVERTEBRATE PESTS” (BASF SE, priority 2022, dated 2024)

Tests used:
Assay type in all cases: in vivo
[1] = tested on: Dichromothrips corbetti; assay: Orchid thrips (Dichromothrips corbetti) floral-immersion test; settings: adult thrips on dipped orchid petals, recorded 72 hours after treatment, read-out: mortality in comparison with untreated controls
Description: Dichromothrips corbetti adults used for bioassay were obtained from a colony maintained continuously under laboratory conditions. For testing purposes, the test compound is diluted in a 1:1 mixture of acetone:water (vol:vol), plus Kinetic HV at a rate of 0.01% v/v.
Thrips potency of each compound was evaluated by using a floral-immersion technique. All petals of individual, intact orchid flowers were dipped into treatment solution and allowed to dry in Petri dishes. Treated petals were placed into individual re-sealable plastic along with about 20 adult thrips. All test arenas were held under continuous light and a temperature of about 28°C for duration of the assay. After 3 days, the numbers of live thrips were counted on each petal. The percent mortality was recorded 72 hours after treatment.

[2] = tested on: Aedes aegypti; assay: whole plant or invertebrate; settings: 48 h, larval mortality visually assessed after 2 days at 28±1°C, read-out: mortality in comparison with untreated controls
Description: For evaluating control of yellow fever mosquito (Aedes aegypti) the test unit consisted of 96-well-microtiter plates containing 200µl of tap water per well and 5-15 freshly hatched A. aegypti larvae.
The active compounds were formulated using a solution containing 75% (v/v) water and 25% (v/v) DMSO. Different concentrations of formulated compounds or mixtures were sprayed onto the insect diet at 2.5µl, using a custom-built micro atomizer, at two replications.
After application, microtiter plates were incubated at 28±1°C, 80±5 % RH for 2 days. Larval mortality was then visually assessed.

[3] = tested on: Heliothis virescens; assay: Tobacco budworm (Heliothis virescens) control, 96-well microtiter plate insect diet test with eggs; settings: 120 h, egg and larval mortality visually assessed after 5 days at about 28 ± 1°C, read-out: mortality in comparison with untreated controls
Description: For evaluating control of tobacco budworm (Heliothis virescens) the test unit consisted of 96-well-microtiter plates containing an insect diet and 15-25 H. virescens eggs.
The compounds were formulated using a solution containing 75% v/v water and 25% v/v DMSO. Different concentrations of formulated compounds were sprayed onto the insect diet at 10 µl, using a custom-built micro atomizer, at two replications.
After application, microtiter plates were incubated at about 28 ± 1°C and about 80 ± 5 % relative humidity for 5 days. Egg and larval mortality was then visually assessed.

[4] = tested on: Anthonomus grandis; assay: Boll weevil (Anthonomus grandis) control, 96-well microtiter plate insect diet test with eggs; settings: 120 h, egg and larval mortality visually assessed after 5 days at about 25 ± 1°C, read-out: mortality in comparison with untreated controls
Description: For evaluating control of boll weevil (Anthonomus grandis) the test unit consisted of 96-well-microtiter plates containing an insect diet and 5-10 A. grandis eggs.
The compounds were formulated using a solution containing 75% v/v water and 25% v/v DMSO. Different concentrations of formulated compounds were sprayed onto the insect diet at 5µl, using a custom-built micro atomizer, at two replications.
After application, microtiter plates were incubated at about 25 ± 1°C and about 75 ± 5 % relative humidity for 5 days. Egg and larval mortality was then visually assessed.

[5] = tested on: Spodoptera eridania; assay: Southern armyworm (Spodoptera eridania), 2nd instar larvae, foliar spray on lima bean plants; settings: 96 h, 2nd instar larvae on sprayed lima bean plants, assessed 4 days after treatment, read-out: mortality in comparison with untreated controls
Description: The active compounds were formulated by a Tecan liquid handler in 100% cyclohexanone as a 10,000 ppm solution supplied in tubes. The 10,000 ppm solution was serially diluted in 100% cyclohexanone to make interim solutions. These served as stock solutions for which final dilutions were made by the Tecan in 50% acetone:50% water (v/v) into 10 or 20ml glass vials. A nonionic surfactant (Kinetic®) was included in the solution at a volume of 0.01% (v/v). The vials were then inserted into an automated electrostatic sprayer equipped with an atomizing nozzle for application to plants/insects. Lima bean plants (variety Sieva) were grown 2 plants to a pot and selected for treatment at the 1st true leaf stage. Test solutions were sprayed onto the foliage by an auto-mated electrostatic plant sprayer equipped with an atomizing spray nozzle. The plants were dried in the sprayer fume hood and then removed from the sprayer. Each pot was placed into perforated plastic bags with a zip closure. Ten to 11 armyworm larvae were placed into the bag and the bags zipped closed. Test plants were maintained in a growth room at about 25°C and about 20-40% relative humidity for 4 days, avoiding direct exposure to fluorescent light (14:10 light:dark photoperiod) to prevent trapping of heat inside the bags. Mortality and reduced feeding were assessed 4 days after treatment, compared to untreated control plants.

CC(NC(=O)c1cc(Cl)cc(C(F)(F)F)c1)c1ncccc1-n1nccn1 (stereo not drawn) [Compound I-1]
≥ 75%: mortality at 300 ppm [1] | mortality at 2500 ppm [2] | mortality at 2500 ppm [3] | mortality at 2500 ppm [4] | mortality at 300 ppm [5]

CC(NC(=O)c1cc(Cl)cc(C(F)(F)F)c1)c1ncccc1-n1cc(C#N)cn1 (stereo not drawn) [Compound I-2]
≥ 75%: mortality at 2500 ppm [2] | mortality at 2500 ppm [4] | mortality at 300 ppm [5]

CC(NC(=O)c1cc(Cl)cc(C(F)(F)F)c1)c1nc(Cl)ccc1-n1nccn1 (stereo not drawn) [Compound I-3, 3-chloro-N-[1-[6-chloro-3-(triazol-2-yl)-2-pyridyl]ethyl]-5-(trifluoromethyl)benzamide]
≥ 75%: mortality at 2500 ppm [2] | mortality at 2500 ppm [3] | mortality at 2500 ppm [4] | mortality at 300 ppm [5]
